{"source": "patent US20250171423A1", "about": "“PHARMACEUTICAL COMPOUNDS FOR THE TREATMENT OF COMPLEMENT MEDIATED DISORDERS” (Achillion Pharmaceuticals, Inc., priority 2020, published 2025)"}
{"biological_target": "T1, Human complement C1s enzyme (Homo sapiens, UniProt P09871)", "T1 construct": "purified from human serum, Complement Technology, Inc; purchased Complement Technology, Inc; host or cells: human serum", "T1 sequence (P09871 438-688 limits assumed)": "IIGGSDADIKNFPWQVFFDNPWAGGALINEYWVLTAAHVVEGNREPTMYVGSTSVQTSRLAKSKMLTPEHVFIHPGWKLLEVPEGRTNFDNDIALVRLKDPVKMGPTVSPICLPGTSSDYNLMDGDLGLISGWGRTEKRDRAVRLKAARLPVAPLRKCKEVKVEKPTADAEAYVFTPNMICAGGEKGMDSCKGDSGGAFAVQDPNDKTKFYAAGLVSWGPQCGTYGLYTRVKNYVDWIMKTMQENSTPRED", "T1 sequence (P09871 16-437 partner limits assumed)": "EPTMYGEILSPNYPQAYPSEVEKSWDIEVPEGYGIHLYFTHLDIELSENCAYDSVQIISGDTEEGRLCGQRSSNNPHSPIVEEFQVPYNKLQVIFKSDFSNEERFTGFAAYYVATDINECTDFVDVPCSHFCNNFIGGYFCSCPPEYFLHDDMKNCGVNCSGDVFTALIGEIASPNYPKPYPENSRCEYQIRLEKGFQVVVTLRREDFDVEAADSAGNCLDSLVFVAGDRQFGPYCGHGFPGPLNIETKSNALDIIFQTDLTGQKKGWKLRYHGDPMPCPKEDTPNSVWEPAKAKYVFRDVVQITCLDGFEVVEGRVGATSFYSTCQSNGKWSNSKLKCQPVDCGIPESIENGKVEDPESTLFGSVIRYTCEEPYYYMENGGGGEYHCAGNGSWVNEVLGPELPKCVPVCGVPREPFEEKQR", "experiment": "Human C1s Enzyme Assay", "assay_type": "biochemical", "details": "human C1s 1.16 nM, 5 min preincubation, substrate Z-L-Lys-SBzl 100 μM, A405; read-out: C1s Protease Activity", "how_it_was_run": "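IC50 values were fitted by nonlinear regression to rates measured as A405 every 30 s for 30 min. The thioester substrate Z-L-Lys-SBzl and Ellman's reagent were each at 100 μM. Serum-derived C1s at 1.16 nM final had 5 min of room-temperature preincubation with compound (pH 7.5 Tris buffer, 1 M NaCl).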", "units": {"IC50": "nM"}}
{"smiles": "C[C@@H](NC(=O)[C@@H]1C[C@](F)(COCCCCCC(=O)O)CN1C(=O)CNC(=O)c1ccc(Oc2ccccc2)cc1)c1cc(C(=N)N)cs1", "note": "[Compound 199, 6-(((3R,5S)-5-(((R)-1-(4-carbamimidoylthiophen-2-yl)ethyl)carbamoyl)-3-fluoro-1-((4-phenoxybenzoyl)glycyl)pyrrolidin-3-yl)methoxy)hexanoic acid]", "IC50": "< 100"}
{"smiles": "N=C(N)c1csc([C@H](NC(=O)[C@@H]2C[C@@H](OC(F)F)CN2C(=O)CNC(=O)c2ccc(Oc3ccccc3)cc2)c2ccccc2)c1", "note": "[Compound 200, (2S,4R)-N-((R)-(4-carbamimidoylthiophen-2-yl)(phenyl)methyl)-4-(difluoromethoxy)-1-((4-phenoxybenzoyl)glycyl)pyrrolidine-2-carboxamide]", "IC50": "> 1000"}
{"smiles": "C[C@@]12C[C@@H]1N(C(=O)CNC(=O)c1ccc(Oc3ccccc3)cc1)[C@H](C(=O)NCc1nnc(C(=N)N)o1)C2", "note": "[Compound 201, (1S,3S,5S)-N-((5-carbamimidoyl-1,3,4-oxadiazol-2-yl)methyl)-5-methyl-2-((4-phenoxybenzoyl)glycyl)-2-azabicyclo[3.1.0]hexane-3-carboxamide]", "IC50": "> 1000"}
{"smiles": "C[C@@H](NC(=O)[C@@H]1C[C@](F)(CF)CN1C(=O)CNC(=O)c1ccc(C(=O)c2ccccc2)cc1)c1cc(C(=N)N)cs1", "note": "[Compound 202, (2S,4R)-1-((4-benzoylbenzoyl)glycyl)-N-((R)-1-(4-carbamimidoylthiophen-2-yl)ethyl)-4-fluoro-4-(fluoromethyl)pyrrolidine-2-carboxamide]", "IC50": "< 100"}
{"smiles": "C[C@@H](NC(=O)[C@@H]1C[C@@H](OC(F)F)CN1C(=O)CNC(=O)c1ccc(C(=O)c2ccccc2)cc1)c1cc(C(=N)N)cs1", "note": "[Compound 203, (2S,4R)-1-((4-benzoylbenzoyl)glycyl)-N-((R)-1-(4-carbamimidoylthiophen-2-yl)ethyl)-4-(difluoromethoxy)pyrrolidine-2-carboxamide]", "IC50": "< 100"}
{"smiles": "Cc1sc(CNC(=O)[C@@H]2C[C@]3(C)C[C@@H]3N2C(=O)CNC(=O)c2ccc(Oc3ccccc3)cc2)cc1C(=N)N", "note": "[Compound 204, (1S,3S,5S)-N-((4-carbamimidoyl-5-methylthiophen-2-yl)methyl)-5-methyl-2-((4-phenoxybenzoyl)glycyl)-2-azabicyclo[3.1.0]hexane-3-carboxamide]", "IC50": "> 1000"}
{"smiles": "C[C@@]12C[C@@H]1N(C(=O)CNC(=O)c1ccc(Oc3ccccc3)cc1)[C@H](C(=O)NCc1cc(/C(N)=N/S(N)(=O)=O)cs1)C2", "note": "[Compound 205, (1S,3S,5S)-5-methyl-2-((4-phenoxybenzoyl)glycyl)-N-((4-(N-sulfamoylcarbamimidoyl)thiophen-2-yl)methyl)-2-azabicyclo[3.1.0]hexane-3-carboxamide]", "IC50": "> 1000"}
{"smiles": "N=C(N)c1csc(CNC(=O)[C@@H]2CC3(CN2C(=O)CNC(=O)CCCOc2ccnc(F)c2)OCCO3)c1", "note": "[Compound 206, (S)-N-((4-carbamimidoylthiophen-2-yl)methyl)-7-((4-((2-fluoropyridin-4-yl)oxy)butanoyl)glycyl)-1,4-dioxa-7-azaspiro[4.4]nonane-8-carboxamide]", "IC50": "< 100"}
{"smiles": "C[C@@]12C[C@@H]1N(C(=O)CNC(=O)CCCOc1cccc3ccccc13)[C@H](C(=O)NCc1cc(C(=N)N)cs1)C2", "note": "[Compound 207, (1S,3S,5S)-N-((4-carbamimidoylthiophen-2-yl)methyl)-5-methyl-2-((4-(naphthalen-1-yloxy)butanoyl)glycyl)-2-azabicyclo[3.1.0]hexane-3-carboxamide]", "IC50": "< 100"}
{"smiles": "N=C(N)c1csc(CNC(=O)[C@@H]2CC3(CN2C(=O)CNC(=O)CCCOc2ccc(C4CC4)cc2)OCCO3)c1", "note": "[Compound 208, (S)-N-((4-carbamimidoylthiophen-2-yl)methyl)-7-((4-(4-cyclopropylphenoxy)butanoyl)glycyl)-1,4-dioxa-7-azaspiro[4.4]nonane-8-carboxamide]", "IC50": "< 100"}
{"smiles": "CNC(=O)C(NC(=O)[C@@H]1C[C@@H](OC(F)F)CN1C(=O)CNC(=O)c1ccc(Oc2ccccc2)cc1)c1cc(C(=N)N)cs1", "note": "(stereo partly drawn) [Compound 210, (2S,4R)-N-(1-(4-carbamimidoylthiophen-2-yl)-2-(methylamino)-2-oxoethyl)-4-(difluoromethoxy)-1-((4-phenoxybenzoyl)glycyl)pyrrolidine-2-carboxamide]", "IC50": "> 1000"}
{"smiles": "N=C(N)c1csc(CNC(=O)[C@@H]2CC[C@@H]3CC[C@H](NC(=O)c4ccc(Oc5ccccc5)cc4)C(=O)N32)c1", "note": "[Compound 211, (3S,6S,8aS)-N-((4-carbamimidoylthiophen-2-yl)methyl)-5-oxo-6-(4-phenoxybenzamido)octahydroindolizine-3-carboxamide]", "IC50": "100 to 1000"}
{"smiles": "C[C@H](Oc1ccc(C(=O)NCC(=O)N2[C@H]3C[C@@]3(C)C[C@H]2C(=O)NCc2cc(C(=N)N)cs2)cc1)c1ccccc1", "note": "[Compound 212, (1S,3S,5S)-N-((4-carbamimidoylthiophen-2-yl)methyl)-5-methyl-2-((4-((S)-1-phenylethoxy)benzoyl)glycyl)-2-azabicyclo[3.1.0]hexane-3-carboxamide]", "IC50": "< 100"}
{"smiles": "COC[C@@H](NC(=O)[C@@H]1C[C@@H](OC(F)F)CN1C(=O)CNC(=O)c1ccc(Oc2ccccc2)cc1)c1cc(C(=N)N)cs1", "note": "[Compound 213, (2S,4R)-N-((R)-1-(4-carbamimidoylthiophen-2-yl)-2-methoxyethyl)-4-(difluoromethoxy)-1-((4-phenoxybenzoyl)glycyl)pyrrolidine-2-carboxamide]", "IC50": "> 1000"}
{"smiles": "Cc1sc(CNC(=O)[C@@H]2C[C@]3(C)C[C@@H]3N2C(=O)CNC(=O)CCCOc2ccccc2)cc1C(=N)N", "note": "[Compound 216, (1S,3S,5S)-N-((4-carbamimidoyl-5-methylthiophen-2-yl)methyl)-5-methyl-2-((4-phenoxybutanoyl)glycyl)-2-azabicyclo[3.1.0]hexane-3-carboxamide]", "IC50": "> 1000"}
{"smiles": "N=C(N)c1csc([C@@H](NC(=O)[C@@H]2CC3(CN2C(=O)CNC(=O)CCCOc2ccccc2)OCCO3)c2ccccc2)c1", "note": "[Compound 217, (S)-N-((S)-(4-carbamimidoylthiophen-2-yl)(phenyl)methyl)-7-((4-phenoxybutanoyl)glycyl)-1,4-dioxa-7-azaspiro[4.4]nonane-8-carboxamide]", "IC50": "> 1000"}
{"smiles": "COC[C@@]1(F)C[C@@H](C(=O)N[C@H](C)c2cc(C(=N)N)cs2)N(C(=O)CNC(=O)c2ccc(C(=O)c3ccccc3)cc2)C1", "note": "[Compound 218, (2S,4R)-1-((4-benzoylbenzoyl)glycyl)-N-((R)-1-(4-carbamimidoylthiophen-2-yl)ethyl)-4-fluoro-4-(methoxymethyl)pyrrolidine-2-carboxamide]", "IC50": "< 100"}
{"smiles": "C[C@@H](NC(=O)[C@@H]1CC2(CN1C(=O)CNC(=O)c1ccc(C(=O)c3ccccc3)cc1)OCCO2)c1cc(C(=N)N)cs1", "note": "[Compound 219, (S)-7-((4-benzoylbenzoyl)glycyl)-N-((R)-1-(4-carbamimidoylthiophen-2-yl)ethyl)-1,4-dioxa-7-azaspiro[4.4]nonane-8-carboxamide]", "IC50": "< 100"}
{"smiles": "CC(C)C[C@H](NC(=O)[C@@H]1CC2(CN1C(=O)CNC(=O)CCCOc1ccccc1)OCCO2)c1cc(C(=N)N)cs1", "note": "[Compound 221, (S)-N-((S)-1-(4-carbamimidoylthiophen-2-yl)-3-methylbutyl)-7-((4-phenoxybutanoyl)glycyl)-1,4-dioxa-7-azaspiro[4.4]nonane-8-carboxamide]", "IC50": "> 1000"}
{"smiles": "C/N=C(/NC)c1csc(CNC(=O)[C@@H]2C[C@]3(C)C[C@@H]3N2C(=O)CNC(=O)c2ccc(Oc3ccccc3)cc2)c1", "note": "[Compound 222, (1S,3S,5S)-N-((4-((E)-N,N′-dimethylcarbamimidoyl)thiophen-2-yl)methyl)-5-methyl-2-((4-phenoxybenzoyl)glycyl)-2-azabicyclo[3.1.0]hexane-3-carboxamide]", "IC50": "> 1000"}
{"smiles": "C[C@@H](Oc1ccc(C(=O)NCC(=O)N2[C@H]3C[C@@]3(C)C[C@H]2C(=O)NCc2cc(C(=N)N)cs2)cc1)c1ccccc1", "note": "[Compound 223, (1S,3S,5S)-N-((4-carbamimidoylthiophen-2-yl)methyl)-5-methyl-2-((4-((R)-1-phenylethoxy)benzoyl)glycyl)-2-azabicyclo[3.1.0]hexane-3-carboxamide]", "IC50": "< 100"}
{"smiles": "C[C@@H](NC(=O)[C@@H]1C[C@](F)(COCCCCCC(=O)O)CN1C(=O)CNC(=O)CCCOc1ccccc1)c1cc(C(=N)N)cs1", "note": "[Compound 234, 6-(((3R,5S)-5-(((R)-1-(4-carbamimidoylthiophen-2-yl)ethyl)carbamoyl)-3-fluoro-1-((4-phenoxybutanoyl)glycyl)pyrrolidin-3-yl)methoxy)hexanoic acid]", "IC50": "< 100"}
{"smiles": "C[C@@]12C[C@@H]1N(C(=O)CNC(=O)c1ccc(Oc3ccccc3)cc1)[C@H](C(=O)NCc1ncc(C(=N)N)s1)C2", "note": "[Compound 235, (1S,3S,5S)-N-((5-carbamimidoylthiazol-2-yl)methyl)-5-methyl-2-((4-phenoxybenzoyl)glycyl)-2-azabicyclo[3.1.0]hexane-3-carboxamide]", "IC50": "< 100"}
